In patent publication US20060019329A1, “Method of screening for protein inhibitors and activators” (priority 1988, published 2006):

Tests used:
[1] = system: FDC-P1 cells overproducing PKC beta1; test: Morphologic response of FDC-P1 cells overproducing PKCbeta1 to PKC activators; assay type: cell-based; conditions: 100 nM TPA, after 12 hours
Description: Several cell lines were plated at 3×10E4 cells/ml and treated with 100 nM TPA. After 12 hours, representative fields were photographed. […] The latter clumps are easily visualized with standard cell stains such as Giemsa, and stain much darker than the corresponding control cells under these conditions.

[2] = system: R6-C1 control cells; test: Morphologic response to phorbol ester treatment, control R6-C1; assay type: cell-based, rat
Description: (§1) FIG. 4. Morphologic Responses of the Cell Lines to Phorbol Ester Treatment. Nearly confluent cultures of the three indicated cell lines were exposed to 100 ng/ml TPA in 0.1% dimethylsulfoxide (DMSO) solvent (“+TPA”) or 0.1% DMSO alone (“−TPA”), in DMEM plus 10% CS. Photographs were taken 24 hours later (Panels A and D) and 48 hours later (Panels B and E). Fresh medium plus or minus TPA was then added and photographs were then taken an additional 24 hours later (Panels C and F). (Magnification: 100×).
(§2) All of the cell lines were then exposed to a second, fresh dose of TPA (100 ng/ml) and examined 24 hours later (FIG. 4, Panel F), i.e., 72 hours after the first dose of TPA.

[3] = system: R6-PKC3 cells; test: Morphologic response to phorbol ester treatment, R6-PKC3; assay type: cell-based, rat
Description: as §1, §2

[4] = system: R6-PKC5 cells (Rat 6 fibroblasts overproducing PKCbeta1); test: Growth in soft agar (anchorage independence), R6-PKC5; assay type: cell-based
Description: (§3) Cells were seeded at a density of 10^4/plate in a series of 60 mm plates, in 5 ml DMEM plus 10% CS. Twenty-four hours later, cells in triplicate plates were trypsinized and counted. This point was designated “day 0.” The remaining cultures were then grown in the respective medium (i.e. plus or minus 100 ng/ml TPA) with fresh medium changes twice per week. Cell counts per plate were then determined on triplicate plates during the remainder of the growth curve (FIG. 3). The results obtained were analyzed for exponential doubling time and saturation density (Table 2). To assess growth in soft agar (anchorage independence), 2×10^4 cells were suspended in 2 ml of 0.3% Bacto agar (Difco Laboratories, Detroit, Mich.) in DMEM containing 20% fetal calf serum (FCS) and overlayed above a layer of 5 ml of 0.5% agar in the same medium, on 60 mm petri dishes. The cells were then overlaid with DMEM plus 20% FCS every 4 days. At the end of 30 days, colonies were stained with the vital stain 2-(p-iodophenyl)-3-(p-nitrophenyl)-5-phenyltetrazolinium chloride hydrate (INT) (Sigma Chemical Co., St. Louis, Mo.) for 48 hours at 37° C., in an incubator with 5% CO2 (Schaeffer and Friend, 1976), and the number of colonies counted under low power on an inverted phase microscope. The data are expressed as “cloning efficiency”, i.e. number of colonies greater than 0.05 mm per plate X 100 divided by the number of cells originally seeded per plate.
(§4) I also assayed these cell lines for their ability to form colonies in soft agar, since with rodent cells the acquisition of anchorage-independent growth often correlates with tumorigenicity (Freedman and Shin, 1974).

[5] = system: R6-PKC5 cells; test: Morphologic response to phorbol ester treatment, R6-PKC5; assay type: cell-based, rat
Description: as §1, §2

[6] = system: R6-PKC3 cells (Rat 6 fibroblasts overproducing PKCbeta1); test: Growth in soft agar (anchorage independence), R6-PKC3; assay type: cell-based
Description: as §3, §4

[7] = system: R6-PKC3 cells; test: Growth in monolayer culture, R6-PKC3; assay type: cell-based, rat
Description: as §3
It was also of interest to determine the growth rates of these cells in monolayer culture. Detailed growth curves were performed on R6-C1, R6-PKC3 and R6-PKC5 cells in 10% calf serum and DMEM medium, in the absence and presence of 100 ng/ml TPA.

[8] = system: R6-C1 control cells; test: Growth in monolayer culture, control R6-C1; assay type: cell-based, rat; conditions: R6C1 (control), + TPA 100 ng/ml
Description: (§5) Cells were seeded at a density of 10^4/plate in a series of 60 mm plates, in 5 ml DMEM plus 10% CS. Twenty-four hours later, cells in triplicate plates were trypsinized and counted. This point was designated “day 0.” The remaining cultures were then grown in the respective medium (i.e. plus or minus 100 ng/ml TPA) with fresh medium changes twice per week. Cell counts per plate were then determined on triplicate plates during the remainder of the growth curve (FIG. 3). The results obtained were analyzed for exponential doubling time and saturation density (Table 2). To assess growth in soft agar (anchorage independence), 2×10^4 cells were suspended in 2 ml of 0.3% Bacto agar (Difco Laboratories, Detroit, Mich.) in DMEM containing 20% fetal calf serum (FCS) and overlayed above a layer of 5 ml of 0.5% agar in the same medium, on 60 mm petri dishes. […] At the end of 30 days, colonies were stained with the vital stain 2-(p-iodophenyl)-3-(p-nitrophenyl)-5-phenyltetrazolinium chloride hydrate (INT) (Sigma Chemical Co., St. Louis, Mo.) for 48 hours at 37° C., in an incubator with 5% CO2 (Schaeffer and Friend, 1976), and the number of colonies counted under low power on an inverted phase microscope. The data are expressed as “cloning efficiency”, i.e. number of colonies greater than 0.05 mm per plate X 100 divided by the number of cells originally seeded per plate. […]

[9] = system: R6-PKC5 cells; test: Growth in monolayer culture, R6-PKC5; assay type: cell-based, rat; conditions: R6-PKC5 (test), + TPA 100 ng/ml
Description: as §5

[10] = system: R6-C1 control cells (Rat 6 fibroblasts with pMV7 alone); test: Growth in soft agar (anchorage independence), control R6-C1; assay type: cell-based
Description: as §5

[11] = system: cell lines overproducing PKC; test: Growth in agar of cell lines overproducing PKC (further screening of activators and inhibitors); assay type: cell-based, rat; conditions: PKC-overproducing cell lines; known activators or inhibitor of PKC
Description: as §3
Additional compounds tested included the tumor promoters teleocidin, aplysiatoxin, and mezerein, all of which are known activators of PKC (O'Brian, et al., CSH, 1985).
Inhibition of the growth of the R6-PKC3 cells in agar in the presence of tamoxifen provided critical evidence that tamoxifen could inhibit PKC-mediated stimulation of cellular growth.

[12] = system: CHO/HIRC cells overproducing the human insulin receptor; test: Morphologic and growth control effects of insulin on CHO/HIRC test cells; assay type: cell-based, Chinese Hamster; conditions: 400 nM insulin
From the text: (§6) These cell lines were generated using approaches analogous to those previously described for the PKC-overproducing cell lines. However, in these HIR studies we utilized a different expression vector, distinct cell lines, and an alternative method of gene transfer (direct transfection as opposed to virus-mediated transduction as used in the PKC experiments previously described). Briefly, CHO cells were co-transfected with the transfer vector pSVEneo (containing the neomycin resistance gene) and the expression vector pCVSVHIRc as previously described (White et al., 1988). After twenty four hours, the transfected cells were placed into 800 ug/ml G418 to select resistant cells. Approximately two weeks later, G418-resistant clones were isolated and subcloned. Clonal cell lines which express high levels of surface insulin receptors were selected by fluorescence-activated cell sorting. One such line (CHO/HIRC), which stably overproduced approximately 80,000 insulin receptors per CHO cell, was utilized in these experiments. A control CHO cell line (CHO/NEO), harboring only the pSVEneo transfer vector, were generated in analogous fashion. Detailed preliminary characterizations of this cell line have been described (White et al., 1988).
We then tested the ability of the CHO/HIRC and CHO/NEO cells to respond to the following insulin treatment protocol. Control cells, hereinafter termed CHO/NEO (which harbor pSVEneo alone), and the Test cells, termed CHO/HIRC (which stably overproduced about 80,000 insulin receptors per cell), were incubated in the presence and absence of insulin. Control (CHO/NEO) and Test (CHO/HIRC) cell lines were exposed to 400 nM of insulin and the resultant morphologic changes were observed and photographed using a Bausch and Lomb BL-200 phase-contrast microscope with a Nikon FM-200 camera attached.

[13] = system: CHO/NEO control cells; test: Morphologic and growth control effects of insulin on CHO/NEO control cells; assay type: cell-based, Chinese Hamster; conditions: 400 nM insulin, 48 hours after treatment
From the text: as §6
We then tested the ability of the CHO/HIRC and CHO/NEO cells to respond to the following insulin treatment protocol. […]

[14] = 24 hours after second 100 ng/ml dose (72 hours after first)
[15] = R6-PKC5 (test), + TPA 100 ng/ml, 0.3% agar
[16] = R6-PKC3 (test), + TPA 100 ng/ml, 0.3% agar
[17] = initial exponential phase, DMEM plus 10% CS

Compound: CCCCCCCCCCCCCC(=O)O[C@@H]1[C@@H](C)[C@@]2(O)[C@@H](C=C(CO)C[C@]3(O)C(=O)C(C)=C[C@@H]23)[C@@H]2C(C)(C)[C@]12OC(C)=O [TPA, 12-O-tetradecanoylphorbol-13-acetate]
- morphologic changes [1]: profound morphologic changes
- morphology after TPA ([2]; 24 hours after 100 ng/ml TPA): more elongated and dendritic cells and a criss-cross pattern
- morphologic response to second dose of TPA [2, 14]: failed to respond
- morphology after TPA ([2]; 48 hours after 100 ng/ml TPA): returned to its normal appearance
- morphology after TPA ([3]; 24 hours after 100 ng/ml TPA): very long cytoplasmic processes and numerous refractile cell bodies
- morphologic response to second dose of TPA [3, 14]: continued to display their altered morphology as well as an increase in cell density
- morphology after TPA ([3]; 48 hours after 100 ng/ml TPA): continued to display an altered morphology
- Agar Colony Size [4, 15]: 0.10-0.15 mm
- Agar Effic. [4, 15]: 34.7%
- colony sizes and cloning efficiencies in agar ([4]; R6-PKC5, TPA 100 ng/ml in agar medium): enhanced
- morphologic changes after TPA compared with control ([5]; 24 hours after 100 ng/ml TPA): much more dramatic
- morphologic response to second dose of TPA [5, 14]: only slight changes in morphology
- morphology after TPA ([5]; 48 hours after 100 ng/ml TPA, to a lesser extent than R6-PKC3): continued to display an altered morphology
- Agar Colony Size [6, 16]: 0.15-0.35 mm
- Agar Effic. [6, 16]: 29.7%
- colony sizes and cloning efficiencies in agar ([6]; R6-PKC3, TPA 100 ng/ml in agar medium): enhanced
- Monolayer Saturat. Density ([7]; R6-PKC3 (test), + TPA 100 ng/ml, cells per 6 cm plate on day 11): 10.0 × 10^6
- Monolayer Doubling Time ([7]; R6-PKC3 (test), + TPA 100 ng/ml, initial exponential phase, DMEM plus 10% CS): 21.5 h
- cell density when maintained in TPA for a longer period ([7]; R6-PKC3, monolayer, longer period in presence of TPA, cells detach from plate): showed a decline in cell density
- Monolayer Saturat. Density ([8]; cells per 6 cm plate on day 11): 4.2 × 10^6
- Monolayer Doubling Time [8, 17]: 24.6 h
- Monolayer Saturat. Density ([9]; cells per 6 cm plate on day 11): 7.0 × 10^6
- Monolayer Doubling Time [9, 17]: 22.9 h
- growth in agar ([10]; R6-C1, TPA 100 ng/ml in agar medium): still failed to grow in agar
- Agar Effic. ([10]; R6C1 (control), + TPA 100 ng/ml, 0.3% agar): 0%

Compound: C=C(C)[C@@]12O[C@@]3(c4ccccc4)O[C@@H]1[C@@H]1[C@@H]4O[C@]4(CO)[C@@H](O)[C@]4(O)C(=O)C(C)=C[C@H]4[C@@]1(O3)[C@H](C)[C@H]2OC(=O)/C=C/C=C/c1ccccc1 [mezerein]
- modulation of the growth of the cells [11]: modulated the growth of the cells in the expected manner

Compound: teleocidin
- modulation of the growth of the cells [11]: modulated the growth of the cells in the expected manner

Compound: insulin
- morphologic changes ([12]; 24 hours after exposure): further pronounced
- adherence to the culture plate ([12]; 48 hours after treatment): virtually all of the test cells had completely detached from the plate
- morphologic changes ([12]; after 18 hours): profound morphologic changes
- adherence to the culture plate [13]: still largely intact
